# Patent publication US6737383B1, “Herbicidal oxadiazolidines” (priority 1999, dated 2004)
# How the values were obtained:
# [1] = system: surinam grass; test: Test B pre/postemergence surinam grass; assay type: in vivo, Brachiaria decumbens
# How it was run: (§1)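 Test chemicals in a non-phytotoxic solvent mixture with surfactant were sprayed preemergence onto planted seeds and postemergence onto plants 2 to 18 cm tall (1- to 4-leaf stage). After twelve to sixteen days in a greenhouse, injury was visually rated against untreated controls from 0 (no effect) to 10 (complete control).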
# [2] = system: blackgrass; test: Test B pre/postemergence blackgrass; assay type: in vivo, Alopecurus myosuroides
# How it was run: as §1
# [3] = system: pigweed; test: Test B pre/postemergence pigweed; assay type: in vivo, Amaranthus retroflexus
# How it was run: as §1
# [4] = system: rice; test: Test B flood test rice; assay type: in vivo, Oryza sativa
# How it was run: (§2)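 Flood test on plants grown to the 2-leaf stage; treated plants kept in greenhouse twelve to sixteen days, then visually rated against controls on a 0 (no effect) to 10 (complete control) scale.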
# [5] = system: giant foxtail; test: Test B pre/postemergence giant foxtail; assay type: in vivo, Setaria faberii
# How it was run: as §1
# [6] = system: wild oat; test: Test B pre/postemergence wild oat; assay type: in vivo, Avena fatua
# How it was run: as §1
# [7] = system: soybean; test: Test B pre/postemergence soybean; assay type: in vivo, Glycine max
# How it was run: as §1
# [8] = system: bedstraw; test: Test B pre/postemergence bedstraw; assay type: in vivo, Galium aparine
# How it was run: as §1
# [9] = system: crabgrass; test: Test B pre/postemergence crabgrass; assay type: in vivo, Digitaria sanguinalis
# How it was run: as §1
# [10] = system: velvetleaf; test: Test B pre/postemergence velvetleaf; assay type: in vivo, Abutilon theophrasti
# How it was run: as §1
# [11] = system: wheat; test: Test B pre/postemergence wheat; assay type: in vivo, Triticum aestivum
# How it was run: as §1
# [12] = system: purple nutsedge; test: Test B pre/postemergence purple nutsedge; assay type: in vivo, Cyperus rotundus
# How it was run: as §1
# [13] = system: bamyardgrass; test: Test B flood test barnyardgrass; assay type: in vivo, Echinochloa crus-galli
# How it was run: as §2
# [14] = system: morningglory; test: Test B pre/postemergence morningglory; assay type: in vivo, Ipomoea hederacea
# How it was run: as §1
# [15] = system: smallflower flatsedge; test: Test B flood test smallflower flatsedge; assay type: in vivo, Cyperus difformis
# How it was run: as §2
# [16] = system: cocklebur; test: Test B pre/postemergence cocklebur; assay type: in vivo, Xanthium strumarium
# How it was run: as §1
# [17] = Postemergence, Rate 31 g/ha, visual rating, scale 0 to 10 (0 no effect, 10 complete control)
# [18] = Preemergence, Rate 31 g/ha, visual rating, scale 0 to 10 (0 no effect, 10 complete control)
# [19] = Preemergence, Rate 62 g/ha, scale of 0 to 10 where 0 is no effect and 10 is complete control
# [20] = Preemergence, Rate 250 g/ha, scale of 0 to 10 where 0 is no effect and 10 is complete control
# [21] = Rate 62 g/ha, Postemergence, scale 0 to 10, 0 no effect, 10 complete control
# [22] = Rate 125 g/ha, Postemergence, scale of 0 to 10 where 0 is no effect and 10 is complete control
# [23] = Rate 250 g/ha, Postemergence, scale of 0 to 10 where 0 is no effect and 10 is complete control
# [24] = Rate 31 g/ha, Pre-emergence section (flood test species), scale 0 to 10
# [25] = Rate 62 g/ha, headed Pre-emergence (flood test species), scale 0 to 10 (0 no effect, 10 complete control)
# [26] = Rate 125 g/ha, Pre-emergence, flood test species, scale 0 to 10 where 0 is no effect and 10 is complete control
# [27] = Rate 250 g/ha, Pre-emergence, flood-test species, scale 0 to 10, 0 is no effect, 10 is complete control
smiles,measurement,setting,value
COCC(C)N(C(=O)n1oc(=O)n(-c2ccccc2C)c1=O)c1ccc(F)cc1 (stereo not shown) [Compound 324],B. signalgrass plant response rating,[1]; [17],0
same,B. signalgrass plant response rating,[1]; [18],0
same,B. signalgrass plant response rating,[1]; [19],0
same,"B. signalgrass plant response rating (0 to 10 scale, 0 is no effect, 10 is complete control)","[1]; Preemergence, Rate 125 g/ha",0
same,B. signalgrass plant response rating,[1]; [20],0
same,B. signalgrass plant response rating,[1]; [21],0
same,B. signalgrass plant response rating,[1]; [22],0
same,"Plant response rating, B. signalgrass",[1]; [23],0
same,Blackgrass plant response rating,[2]; [17],0
same,Blackgrass plant response rating,[2]; [18],0
same,Blackgrass plant response rating,[2]; [19],0
same,Blackgrass plant response rating (0 to 10 scale),"[2]; Preemergence, Rate 125 g/ha",0
same,Blackgrass plant response rating,[2]; [20],0
same,Blackgrass plant response rating,[2]; [21],0
same,Blackgrass plant response rating,[2]; [22],0
same,"Plant response rating, Blackgrass",[2]; [23],0
same,Redroot pigweed plant response rating,[3]; [17],0
same,Redroot pigweed plant response rating,[3]; [19],0
same,Redroot pigweed plant response rating (0 to 10 scale),"[3]; Preemergence, Rate 125 g/ha",0
same,Redroot pigweed plant response rating,[3]; [20],0
same,Redroot pigweed plant response rating,[3]; [21],0
same,Redroot pigweed plant response rating,[3]; [22],0
same,"Plant response rating, Redroot pigweed",[3]; [23],0
same,Rice plant response rating,[4]; [24],0
same,Rice plant response rating,[4]; [25],0
same,Rice plant response rating,[4]; [26],0
same,Rice plant response rating,[4]; [27],0
same,Giant foxtail plant response rating,[5]; [17],0
same,Giant foxtail plant response rating,[5]; [18],0
same,Giant foxtail plant response rating,[5]; [19],0
same,Giant foxtail plant response rating (0 to 10 scale),"[5]; Preemergence, Rate 125 g/ha",0
same,Giant foxtail plant response rating,[5]; [20],0
same,Giant foxtail plant response rating,[5]; [21],0
same,Giant foxtail plant response rating,[5]; [22],0
same,"Plant response rating, Giant foxtail",[5]; [23],0
same,Wild oats plant response rating,[6]; [17],0
same,Wild oats plant response rating,[6]; [19],0
same,Wild oats plant response rating (0 to 10 scale),"[6]; Preemergence, Rate 125 g/ha",0
same,Wild oats plant response rating,[6]; [20],0
same,Wild oats plant response rating,[6]; [21],0
same,Wild oats plant response rating,[6]; [22],0
same,"Plant response rating, Wild oats",[6]; [23],0
same,Soybean plant response rating,[7]; [17],0
same,Soybean plant response rating,[7]; [19],0
same,Soybean plant response rating (0 to 10 scale),"[7]; Preemergence, Rate 125 g/ha",0
same,Soybean plant response rating,[7]; [20],0
same,Soybean plant response rating,[7]; [21],0
same,Soybean plant response rating,[7]; [22],1
same,"Plant response rating, Soybean",[7]; [23],1
same,Bedstraw plant response rating,[8]; [17],0
same,Bedstraw plant response rating,[8]; [18],0
same,Bedstraw plant response rating,[8]; [19],0
same,Bedstraw plant response rating (0 to 10 scale),"[8]; Preemergence, Rate 125 g/ha",0
same,Bedstraw plant response rating,[8]; [20],0
same,Bedstraw plant response rating,[8]; [21],0
same,Bedstraw plant response rating,[8]; [22],0
same,"Plant response rating, Bedstraw",[8]; [23],0
same,Crabgrass plant response rating,[9]; [17],0
same,Crabgrass plant response rating,[9]; [18],0
same,Crabgrass plant response rating,[9]; [19],0
same,Crabgrass plant response rating (0 to 10 scale),"[9]; Preemergence, Rate 125 g/ha",0
same,Crabgrass plant response rating,[9]; [20],0
same,Crabgrass plant response rating,[9]; [21],0
same,Crabgrass plant response rating,[9]; [22],0
same,"Plant response rating, Crabgrass",[9]; [23],0
same,Velvetleaf plant response rating,[10]; [17],0
same,Velvetleaf plant response rating,[10]; [19],0
same,Velvetleaf plant response rating (0 to 10 scale),"[10]; Preemergence, Rate 125 g/ha",0
same,Velvetleaf plant response rating,[10]; [20],0
same,Velvetleaf plant response rating,[10]; [21],0
same,Velvetleaf plant response rating,[10]; [22],0
same,"Plant response rating, Velvetleaf",[10]; [23],0
same,Wheat plant response rating,[11]; [17],0
same,Wheat plant response rating,[11]; [19],0
same,Wheat plant response rating (0 to 10 scale),"[11]; Preemergence, Rate 125 g/ha",0
same,Wheat plant response rating,[11]; [20],0
same,Wheat plant response rating,[11]; [21],0
same,Wheat plant response rating,[11]; [22],0
same,"Plant response rating, Wheat",[11]; [23],0
same,Nutsedge plant response rating,[12]; [17],0
same,Nutsedge plant response rating,[12]; [19],0
same,Nutsedge plant response rating (0 to 10 scale),"[12]; Preemergence, Rate 125 g/ha",0
same,Nutsedge plant response rating,[12]; [20],0
same,Nutsedge plant response rating,[12]; [21],0
same,Nutsedge plant response rating,[12]; [22],0
same,"Plant response rating, Nutsedge",[12]; [23],0
same,Barnyardgrass plant response rating,[13]; [24],0
same,Barnyardgrass plant response rating,[13]; [25],0
same,Barnyardgrass plant response rating,[13]; [26],0
same,Barnyardgrass plant response rating,[13]; [27],0
same,Morningglory plant response rating,[14]; [17],0
same,Morningglory plant response rating,[14]; [19],0
same,Morningglory plant response rating (0 to 10 scale),"[14]; Preemergence, Rate 125 g/ha",0
same,Morningglory plant response rating,[14]; [20],0
same,Morningglory plant response rating,[14]; [21],0
same,Morningglory plant response rating,[14]; [22],0
same,"Plant response rating, Morningglory",[14]; [23],0
same,S. Flatsedge plant response rating,[15]; [24],0
same,S. Flatsedge plant response rating,[15]; [25],0
same,S. Flatsedge plant response rating,[15]; [26],0
same,S. Flatsedge plant response rating,[15]; [27],0
same,Cocklebur plant response rating,[16]; [17],0
same,Cocklebur plant response rating,[16]; [18],0
same,Cocklebur plant response rating,[16]; [19],0
same,Cocklebur plant response rating (0 to 10 scale),"[16]; Preemergence, Rate 125 g/ha",0
same,Cocklebur plant response rating,[16]; [20],0
same,Cocklebur plant response rating,[16]; [21],0
same,Cocklebur plant response rating,[16]; [22],0
same,"Plant response rating, Cocklebur",[16]; [23],2
